In the first assay the target is Human Factor D (Homo sapiens (Human), UniProt P00746). Kind of assay: Human Factor D Assay. The class given is biochemical.
Human Factor D, sequence (P00746 26-253): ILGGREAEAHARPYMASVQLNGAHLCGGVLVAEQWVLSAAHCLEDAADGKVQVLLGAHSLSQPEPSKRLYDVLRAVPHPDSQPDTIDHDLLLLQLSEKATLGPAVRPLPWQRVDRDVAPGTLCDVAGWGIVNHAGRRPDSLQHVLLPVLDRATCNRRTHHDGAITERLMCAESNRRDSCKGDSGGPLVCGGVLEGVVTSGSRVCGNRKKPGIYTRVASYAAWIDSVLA
Settings: not given
In a few lines: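 IC50 values derive from nonlinear regression of Factor D reaction rates against compound concentration. The enzyme, purified from human serum, is used at 80 nM final with a 5 min room-temperature compound preincubation in 50 mM Tris, 1M NaCl, pH 7.5, before 100 μM Z-L-Lys-SBzl plus 100 μM DTNB are added.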
One may read the IC50 as the concentration that inhibits the measured activity by half. Take `CC(=O)c1nn(CC(=O)N2C[C@H](F)C[C@H]2C(=O)Nc2cccc(Br)[n+]2[O-])c2ccc(-c3cnc(C)nc3)cc12` [Compound 743, 2-((2S,4R)-1-(2-(3-Acetyl-5-(2-methylpyrimidin-5-yl)-1H-indazol-1-yl)acetyl)-4-fluoropyrrolidine-2-carboxamido)-6-bromopyridine 1-oxide]: the IC50 lay within 1000 to 10000 nM.

For the compound `CC(=O)c1nn(CC(=O)N2C[C@H](F)C[C@H]2C(=O)Nc2cccc(Br)[n+]2[O-])c2ccc(-c3cnc(C)[n+]([O-])c3)cc12` [Compound 744, 5-(3-Acetyl-1-(2-((2S,4R)-2-((6-bromo-1-oxidopyridin-2-yl)carbamoyl)-4-fluoropyrrolidin-1-yl)-2-oxoethyl)-1H-indazol-5-yl)-2-methylpyrimidine 1-oxide], the IC50 lay within 1000 to 10000 nM.

Staying with this assay, now noted: Human Factor D, Table 3; read-out: IC50.
As to `CC(=O)n1cc(CC(=O)N2C[C@H](F)C[C@H]2C(=O)Nc2cccc(-c3ccccc3Cl)c2F)c2ccc(-c3cnc(C)nc3)cc21` [Compound 710, (2S,4R)-1-(2-(1-Acetyl-6-(2-methylpyrimidin-5-yl)-1H-indol-3-yl)acetyl)-N-(2′-chloro-2-fluoro-[1,1′-biphenyl]-3-yl)-4-fluoropyrrolidine-2-carboxamide], the IC50 is < 1000 nM.

For `CC(=O)n1cc(CC(=O)N2C[C@H](F)C[C@H]2C(=O)Nc2cccc(Br)n2)c2ccc(-c3cnc(C)nc3)cc21` [Compound 711, (2S,4R)-1-(2-(1-Acetyl-6-(2-methylpyrimidin-5-yl)-1H-indol-3-yl)acetyl)-N-(6-bromopyridin-2-yl)-4-fluoropyrrolidine-2-carboxamide], the IC50 is < 1000 nM.

As to `Cc1cccc(NC(=O)[C@@H]2C[C@@H](F)CN2C(=O)Cn2nc(C(N)=O)c3sc(-c4cnc5cc(C)nn5c4)nc32)n1` [Compound 714, 1-(2-((2S,4R)-4-Fluoro-2-(6-methylpyridin-2-ylcarbamoyl)pyrrolidin-1-yl)-2-oxoethyl)-5-(2-methylpyrazolo[1,5-a]pyrimidin-6-yl)-1H-pyrazolo[3,4-d]thiazole-3-carboxamide], the IC50 is > 10000 nM.

As for `Cc1cccc(NC(=O)[C@@H]2C[C@@H](F)CN2C(=O)Cn2nc(C(N)=O)c3sc(-c4cnc(C)nc4)nc32)n1` [Compound 715, 1-(2-((2S,4R)-4-Fluoro-2-(6-methylpyridin-2-ylcarbamoyl)pyrrolidin-1-yl)-2-oxoethyl)-5-(2-methylpyrimidin-5-yl)-1H-pyrazolo[3,4-d]thiazole-3-carboxamide], the IC50 was > 10000 nM.

Consider `CC(=O)c1ccc(Cl)c(-c2cccc(NC(=O)[C@@H]3C[C@H]4C[C@H]4N3C(=O)Cn3nc(C(N)=O)c4sc(-c5cnc6cc(C)nn6c5)nc43)c2F)c1` [Compound 716, 1-(2-((1R,3S,5R)-3-(5′-Acetyl-2′-chloro-2-fluorobiphenyl-3-ylcarbamoyl)-2-azabicyclo[3.1.0]hexan-2-yl)-2-oxoethyl)-5-(2-methylpyrazolo[1,5-a]pyrimidin-6-yl)-1H-pyrazolo[3,4-d]thiazole-3-carboxamide], for which the IC50 was < 1000 nM.

For the compound `CC(=O)c1ccc(Cl)c(-c2cccc(NC(=O)[C@@H]3C[C@H]4C[C@H]4N3C(=O)Cn3nc(C(N)=O)c4sc(-c5cnc(C)nc5)nc43)c2F)c1` [Compound 717, 1-(2-((1R,3S,5R)-3-(5′-Acetyl-2′-chloro-2-fluorobiphenyl-3-ylcarbamoyl)-2-azabicyclo[3.1.0]hexan-2-yl)-2-oxoethyl)-5-(2-methylpyrimidin-5-yl)-1H-pyrazolo[3,4-d]thiazole-3-carboxamide], the IC50 was < 1000 nM.

Consider `CC(=O)c1nn(CC(=O)N2C[C@H](F)C[C@H]2C(=O)Nc2cccc(Br)n2)c2cc(C(=O)N(C)C)c(-c3cnc(C)nc3)cc12` [Compound 722, 3-Acetyl-1-(2-((2S,4R)-2-((6-bromopyridin-2-yl)carbamoyl)-4-fluoropyrrolidin-1-yl)-2-oxoethyl)-N,N-dimethyl-5-(2-methylpyrimidin-5-yl)-1H-indazole-6-carboxamide], for which the IC50 was < 1000 nM.

With `CNc1ncc2cc(-c3cn(CC(=O)N4C[C@H](F)C[C@H]4C(=O)Nc4cccc(Br)n4)nc3C(N)=O)ccc2n1` [Compound 723, 1-(2-((2S,4R)-2-((6-Bromopyridin-2-yl)carbamoyl)-4-fluoropyrrolidin-1-yl)-2-oxoethyl)-4-(2-(methylamino)quinazolin-6-yl)-1H-pyrazole-3-carboxamide], the concentration for half-maximal inhibition (IC50) was > 10000 nM.

As to `NC(=O)c1nn(CC(=O)N2C[C@H](F)C[C@H]2C(=O)Nc2cccc(Br)n2)cc1-c1cnn(C2CC2)c1` [Compound 726, 1-(2-((2S,4R)-2-((6-Bromopyridin-2-yl)carbamoyl)-4-fluoropyrrolidin-1-yl)-2-oxoethyl)-1′-cyclopropyl-1H,1′H-[4,4′-bipyrazole]-3-carboxamide], the IC50 is > 10000 nM.

For the compound `CC(=O)N1CC=C(c2cn(CC(=O)N3C[C@H](F)C[C@H]3C(=O)Nc3cccc(Br)n3)nc2C(N)=O)CC1` [Compound 727, 4-(1-acetyl-1,2,3,6-Tetrahydropyridin-4-yl)-1-(2-((2S,4R)-2-((6-bromopyridin-2-yl)carbamoyl)-4-fluoropyrrolidin-1-yl)-2-oxoethyl)-1H-pyrazole-3-carboxamide], the IC50 was > 10000 nM.

Turning to `NC(=O)c1nn(CC(=O)N2C[C@H](F)C[C@H]2C(=O)Nc2cccc(Br)n2)cc1-c1cnn(-c2ncc(F)cn2)c1` [Compound 729, 1-(2-((2S,4R)-2-((6-Bromopyridin-2-yl)carbamoyl)-4-fluoropyrrolidin-1-yl)-2-oxoethyl)-1′-(5-fluoropyrimidin-2-yl)-1H,1′H-[4,4′-bipyrazole]-3-carboxamide], the IC50 is > 10000 nM.

As to `CC(=O)c1nn(CC(=O)N2[C@H](C)CC[C@H]2C(=O)Nc2nc(Br)ccc2C)c2ccc(-c3cnc(C)nc3)cc12` [Compound 731, (2S,5R)-1-(2-(3-Acetyl-5-(2-methylpyrimidin-5-yl)-1H-indazol-1-yl)acetyl)-N-(6-bromo-3-methylpyridin-2-yl)-5-methylpyrrolidine-2-carboxamide], the half-inhibitory concentration (IC50) is < 1000 nM.

As to `CC(=O)c1nn(CC(=O)N2C[C@H](F)C[C@H]2C(=O)NC2(C#N)CC2)c2ccc(-c3cnc(C)nc3)cc12` [Compound 739, (2S,4R)-1-(2-(3-acetyl-5-(2-methylpyrimidin-5-yl)-1H-indazol-1-yl)acetyl)-N-(1-cyanocyclopropyl)-4-fluoropyrrolidine-2-carboxamide], the IC50 is < 1000 nM.

For the compound `CC(=O)c1nn(CC(=O)N2C[C@H](F)C[C@H]2C(=O)Nc2cccc(Br)n2)c2ccc(-c3cnc(N)[n+]([O-])c3)cc12` [Compound 741, 5-(3-acetyl-1-(2-((2S,4R)-2-((6-Bromopyridin-2-yl)carbamoyl)-4-fluoropyrrolidin-1-yl)-2-oxoethyl)-1H-indazol-5-yl)-2-aminopyrimidine 1-oxide], the IC50 was < 1000 nM.

As to `CC(=O)c1nn(CC(=O)N2C[C@H](F)C[C@H]2C(=O)Nc2cccc(Br)n2)c2ccc(-c3cnc(C)[n+]([O-])c3)cc12` [Compound 742, 5-(3-Acetyl-1-(2-((2S,4R)-2-((6-bromopyridin-2-yl)carbamoyl)-4-fluoropyrrolidin-1-yl)-2-oxoethyl)-1H-indazol-5-yl)-2-methylpyrimidine 1-oxide], the IC50 is < 1000 nM.

On to `CC(=O)c1nn(CC(=O)N2C[C@H](F)C[C@H]2C(=O)Nc2cccc(-c3cc(S(=O)(=O)NC4CC4)ccc3Cl)c2F)c2ccc(-c3cnc(C)nc3)cc12` [Compound 745, (2S,4R)-1-(2-(3-Acetyl-5-(2-methylpyrimidin-5-yl)-1H-indazol-1-yl)acetyl)-N-(2′-chloro-5′-(N-cyclopropylsulfamoyl)-2-fluoro-[1,1′-biphenyl]-3-yl)-4-fluoropyrrolidine-2-carboxamide], for which the IC50 was < 1000 nM.

As for `CC(=O)c1nn(CC(=O)N2CCOC[C@@H]2C(=O)Nc2cccc(Br)n2)c2ccc(-c3cnc(C)nc3)cc12` [Compound 748, (R)-4-(2-(3-acetyl-5-(2-methylpyrimidin-5-yl)-1H-indazol-1-yl)acetyl)-N-(6-bromopyridin-2-yl)morpholine-3-carboxamide], the IC50 was < 1000 nM.

For the compound `CC(=O)c1nn(CC(=O)N2CCOC[C@H]2C(=O)Nc2cccc(Br)n2)c2ccc(-c3cnc(C)nc3)cc12` [Compound 749, (S)-4-(2-(3-acetyl-5-(2-methylpyrimidin-5-yl)-1H-indazol-1-yl)acetyl)-N-(6-bromopyridin-2-yl)morpholine-3-carboxamide], the half-inhibitory concentration (IC50) is < 1000 nM.

`CC(=O)c1nn(CC(=O)N2C[C@H](F)C[C@H]2C(=O)Nc2cccc(S(=O)(=O)C(F)(F)F)c2)c2ccc(-c3cnc4cc(C)nn4c3)cc12` [Compound 752, (2S,4R)-1-(2-(3-acetyl-5-(2-methylpyrazolo[1,5-a]pyrimidin-6-yl)-1H-indazol-1-yl)acetyl)-4-fluoro-N-(3-((trifluoromethyl)sulfonyl)phenyl) pyrrolidine-2-carboxamide]: the 50% inhibitory concentration (IC50) was < 1000 nM.

Values taken from patent US10287301B2 (Achillion Pharmaceuticals, Inc., priority 2015, dated 2019).
